Measured values from article PMC5293833, “Mycobacterium tuberculosis Prolyl Oligopeptidase Induces In vitro Secretion of Proinflammatory Cytokines by Peritoneal Macrophages” (Frontiers in Microbiology, 2017).
Starred links: 1 amine or outer side, 2 acyl side, 3 side chain; linkers in the order of their positions; H or OH if unused. Residues, ends and D or L forms follow the SMILES beside them. *: point of attachment. AMC = Cc1cc(=O)oc2cc(N*)ccc12; Suc = O=C(CCC(=O)[*:2])[*:1]

Assays:
Assay type in all cases: biochemical
[1] = molecular target: T1, prolyl oligopeptidase (POPMt) (Mycobacterium tuberculosis, UniProt O07178); assay: fluorogenic AMC substrate assay, % inhibition at […]; details: 1000 µM
T1 construct: gene Rv0457c
T1 sequence (O07178 entry or part of it): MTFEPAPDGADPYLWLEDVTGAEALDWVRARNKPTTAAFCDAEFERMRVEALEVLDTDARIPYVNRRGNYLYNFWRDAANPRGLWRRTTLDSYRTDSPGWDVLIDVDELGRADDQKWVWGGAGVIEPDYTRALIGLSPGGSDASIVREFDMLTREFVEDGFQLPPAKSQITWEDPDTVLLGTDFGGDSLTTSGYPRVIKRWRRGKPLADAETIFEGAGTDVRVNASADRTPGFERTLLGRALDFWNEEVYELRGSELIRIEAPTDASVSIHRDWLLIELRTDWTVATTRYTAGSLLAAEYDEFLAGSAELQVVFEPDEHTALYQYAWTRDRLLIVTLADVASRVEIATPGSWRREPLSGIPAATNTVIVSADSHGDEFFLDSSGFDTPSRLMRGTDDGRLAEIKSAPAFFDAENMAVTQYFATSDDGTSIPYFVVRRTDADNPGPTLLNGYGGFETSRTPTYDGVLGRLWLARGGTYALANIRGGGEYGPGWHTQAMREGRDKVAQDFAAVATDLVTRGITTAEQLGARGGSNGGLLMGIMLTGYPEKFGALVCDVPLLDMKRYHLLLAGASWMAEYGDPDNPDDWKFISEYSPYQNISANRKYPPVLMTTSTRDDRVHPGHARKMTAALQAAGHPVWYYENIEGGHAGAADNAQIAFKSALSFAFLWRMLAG

[2] = molecular target: T1, prolyl oligopeptidase (POPMt)
[3] = molecular target: T1, prolyl oligopeptidase (POPMt); assay: fluorogenic AMC substrate assay, % inhibition at […]

Compound | inhibition at 100 µM [3] [%] | other results
NCCc1ccc(S(=O)(=O)F)cc1 [AEBSF] |  | Inhibition (%) [1]: 33
Cc1cc(=O)oc2cc(NC(=O)[C@@H]3CCCN3C(=O)CNC(=O)CCC(=O)O)ccc12 [N-Suc-Gly-Pro-AMC] (Suc-Gly-Pro-{AMC}) |  | Relative activity (%) [2]: 48 % relative activity
Cc1ccc(S(=O)(=O)N[C@@H](CCCCN)C(=O)CCl)cc1 [TLCK] | 35 | 
Cc1ccc(S(=O)(=O)N[C@@H](Cc2ccccc2)C(=O)CCl)cc1 [TPCK] | 66 | 
